Assay results as given in patent US8334316B2, “Substituted organosulfur compounds and methods of using thereof” (ACEA Biosciences, Inc., priority 2004, dated 2012).
Read-outs that look alike come from different tables or passages of the source.

Experiment: Acute toxicity, single intravenous injection, LD50 (Bliss method) in Kunming mice
Format: in vivo
Conditions: for Dead animals on each day after the single intravenous injection (c3-c11 = day 1-9, c12 = day 10-14): 163.8 mg/kg; for LD50 at 2 weeks: Kunming, mouse, in vivo, iv
Experimental: To evaluate the in vivo acute, intravenous toxicity of DBTS and ACEA100108 (a derivative of DBTS, see Table 33), the experiments were performed in non-tumor bearing, normal Kunming mice by monitoring the acute response of mice to a single dose of DBTS or ACEA100108 via intravenous injection (i.v.). The number of death for the treated mice was monitored and recorded. LD50 values for these compounds were calculated. Details of the study are provided below.
The experiments to test DBTS and ACEA100108 acute toxicity were performed in mice. The test mice were randomly divided into six groups (five dosing groups and one control group). Each group contained 20 Kunming strain mice, and among them, 50% were male and 50% were female. After administration of a single dose of DBTS or ACEA100108 via intravenous injection (i.v.), the acute response to DBTS or ACEA100108 compound, and the death of the treated mice during the first two weeks were monitored and recorded. The LD50 value was calculated using the Bliss method.
Materials and Method. The test chemical compound were DBTS and ACEA100108, which were dissolved into hydrogenated castor oil in the pre-warmed water bath and made as a 20 mg/ml solution. The solution was further diluted to desired experiment concentrations with the normal saline. The administration volume was 0.5 ml i.v. per mouse and the injection speed was 0.5 ml/0.5 min.
The experimental mice were Kunming strain, provided by the Experimental Animal Department, Shanghai Pharmaceutical Industry Institute. The certificate number of the facility was Animal Facility Certification Number 107. The average weight of the mice was 18-20 gram. Each test group contained 20 Kunming strain mice, and among them, 10 mice were male and 10 mice were female. […] The mice in the control group were only given the same volume of the solvent, which were diluted hydrogenated castor oil. All the testing mice were given a single intravenous injection of DBTS, ACEA100108, or the solvent that served as the control at the injection speed of 0.5 ml/0.5 min. The acute response to DBTS, ACEA100108 or the solvent immediately after the administration, as well as weight change, and the death within the first two weeks of the administration were monitored and recorded. The intravenous injection LD50 values in mice were calculated using the Bliss method.

[1] = female, 163.8 mg/kg single i.v.
[2] = female, 204.8 mg/kg single i.v.

c1ccc(CSSSCc2ccccc2)cc1 [DBTS, Dibenzyl trisulfide]
Percentage of dead animals % (50% male, 50% female, 163.8 mg/kg single i.v.): 0%
Dead animals on each day after the single intravenous injection (c3-c11 = day 1-9, c12 = day 10-14) (50% male, 50% female, 20 animals, deaths on day 8 after injection): 0
Dead animals on each day after the single intravenous injection (c3-c11 = day 1-9, c12 = day 10-14) (50% male, 50% female, 20 animals, deaths on days 10-14 after injection): 0 - - - 0
Percentage of dead animals % (50% male, 50% female, 204.8 mg/kg single i.v.): 15%
Percentage of dead animals % (50% male, 50% female, 256 mg/kg single i.v.): 45%
Percentage of dead animals % (50% male, 50% female, 320 mg/kg single i.v.): 85%
Percentage of dead animals % (50% male, 50% female, 400 mg/kg single i.v.): 100%
mouse single i.v. dose LD50, interval in parentheses (Kunming mice, 50% male 50% female, Bliss method): 234.96 to 284.56 mg/kg
LD50 at 2 weeks (both sexes, 50% male, 50% female Kunming mice, single i.v., read-out: LD50): 259 mg/kg
LD50 at 2 weeks (both sexes, 50% male, 50% female Kunming mice, single i.v., read-out: LD50 (95% CL)): 235 to 284 mg/kg
LD50 at 2 weeks (both sexes, Kunming mice, 50% male 50% female, Bliss method, read-out: mouse single i.v. dose LD50, interval in parentheses): 235 to 284 mg/kg
LD50 at 2 weeks (both sexes, Kunming mice, 50% male 50% female, Bliss method, read-out: mouse single i.v. dose LD50 value): 259 mg/kg
Average animal weight (g) Beginning [1]: 19.9 g
Average animal weight (g) End [1]: 24.5 g
Percentage of dead animals % [1]: 0%
Dead animals on each day after the single intravenous injection (c3-c11 = day 1-9, c12 = day 10-14) (female, 10 animals, deaths on day 8 after injection): 0
Dead animals on each day after the single intravenous injection (c3-c11 = day 1-9, c12 = day 10-14) (female, 10 animals, deaths on days 10-14 after injection): 0 - - - 0
Average animal weight (g) Beginning [2]: 20.5 g
Percentage of dead animals % [2]: 20%
Average animal weight (g) End (female, 204.8 mg/kg single i.v., survivors): 24.3 g
Average animal weight (g) Beginning (female, 256 mg/kg single i.v.): 19.9 g
Percentage of dead animals % (female, 256 mg/kg single i.v.): 50%
Average animal weight (g) End (female, 256 mg/kg single i.v., survivors): 24.2 g
Average animal weight (g) Beginning (female, 320 mg/kg single i.v.): 20.6 g
Percentage of dead animals % (female, 320 mg/kg single i.v.): 80%
Average animal weight (g) End (female, 320 mg/kg single i.v., survivors): 24.5 g
Average animal weight (g) Beginning (female, 400 mg/kg single i.v.): 19.8 g
Percentage of dead animals % (female, 400 mg/kg single i.v.): 100%
LD50 at 2 weeks (female, female Kunming mice, single i.v., read-out: LD50): 256 mg/kg
LD50 at 2 weeks (female, female Kunming mice, single i.v., read-out: LD50 (95% CL)): 222 to 296 mg/kg
Average animal weight (g) Beginning (male, 163.8 mg/kg single i.v.): 20.0 g
Average animal weight (g) End (male, 163.8 mg/kg single i.v.): 26.9 g
Percentage of dead animals % (male, 163.8 mg/kg single i.v.): 0%
Dead animals on each day after the single intravenous injection (c3-c11 = day 1-9, c12 = day 10-14) (male, 10 animals, deaths on day 8 after injection): 0
Dead animals on each day after the single intravenous injection (c3-c11 = day 1-9, c12 = day 10-14) (male, 10 animals, deaths on days 10-14 after injection): 0 - - - 0
Average animal weight (g) Beginning (male, 204.8 mg/kg single i.v.): 19.9 g
Percentage of dead animals % (male, 204.8 mg/kg single i.v.): 10%
Average animal weight (g) End (male, 204.8 mg/kg single i.v., survivors): 26.6 g
Average animal weight (g) Beginning (male, 256 mg/kg single i.v.): 20.4 g
Percentage of dead animals % (male, 256 mg/kg single i.v.): 40%
Average animal weight (g) End (male, 256 mg/kg single i.v., survivors): 26.3 g
Average animal weight (g) Beginning (male, 320 mg/kg single i.v.): 20.1 g
Percentage of dead animals % (male, 320 mg/kg single i.v.): 90%
Average animal weight (g) End (male, 320 mg/kg single i.v., survivors): 25.0 g
Average animal weight (g) Beginning (male, 400 mg/kg single i.v.): 20.1 g
Percentage of dead animals % (male, 400 mg/kg single i.v.): 100%
LD50 at 2 weeks (male, male Kunming mice, single i.v., read-out: LD50): 261 mg/kg
LD50 at 2 weeks (male, male Kunming mice, single i.v., read-out: LD50 (95% CL)): 230 to 296 mg/kg
